Measured values taken from PubChem BioAssay (NCI).
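Grown in 96-well plates, cells were treated for 48 hours with each compound at five concentrations. Insufficient inhibition: endpoint recorded as highest concentration tested. The concentration for 50% growth inhibition is given as GI50. TGI is the concentration that stops growth completely.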

Legend:
Test in all cases: NCI-60 cell line screen, 48 h
786-0 renal = test system: 786-0 renal
A498 renal = test system: A498 renal
COLO 205 colon = test system: COLO 205 colon
HCC-2998 colon = test system: HCC-2998 colon
HOP-92 NSCLC = test system: HOP-92 NSCLC
NCI/ADR-RES ovarian = test system: NCI/ADR-RES ovarian
PC-3 prostate = test system: PC-3 prostate
SF-268 CNS = test system: SF-268 CNS
SK-MEL-2 melanoma = test system: SK-MEL-2 melanoma
TK-10 renal = test system: TK-10 renal

| SMILES | GI50 (786-0 renal) [µM] | TGI (786-0 renal) [µM] | GI50 (A498 renal) [µM] | TGI (A498 renal) [µM] | GI50 (COLO 205 colon) [µM] | TGI (COLO 205 colon) [µM] | GI50 (HCC-2998 colon) [µM] | TGI (HCC-2998 colon) [µM] | GI50 (HOP-92 NSCLC) [µM] | TGI (HOP-92 NSCLC) [µM] | GI50 (NCI/ADR-RES ovarian) [µM] | TGI (NCI/ADR-RES ovarian) [µM] | GI50 (PC-3 prostate) [µM] | TGI (PC-3 prostate) [µM] | GI50 (SF-268 CNS) [µM] | TGI (SF-268 CNS) [µM] | GI50 (SK-MEL-2 melanoma) [µM] | TGI (SK-MEL-2 melanoma) [µM] | GI50 (TK-10 renal) [µM] | TGI (TK-10 renal) [µM] |
| --- | --- | --- | --- | --- | --- | --- | --- | --- | --- | --- | --- | --- | --- | --- | --- | --- | --- | --- | --- | --- |
| CN1CCN(c2ccc(NC3=C(Cl)C(=O)c4ncccc4C3=O)cc2C(F)(F)F)CC1 | 1.84 | 3.32 | 11.3 | 24.2 | 1.89 | 4.63 | 7.51 | 20.8 | 1.58 | 3.03 | 2.46 | 7.47 | 2.23 | 6.85 | 3.3 | 14 | 3.32 | 8.79 | 1.92 | 3.45 |
| COc1ccc(-n2nc(C)c3c(Nc4ccc(NC(=O)Nc5cc(C(F)(F)F)ccc5F)cc4)ncnc32)cc1 | 2.04 | 5.2 | 2.82 | 7.18 | 1.98 | 4.93 | 3.19 | 15.5 | 2.23 | 6.26 | 2.93 | 11.9 | 2.13 | 6.85 | 3.24 | > 100 | 2.35 | 4.91 | 3.74 | > 100 |
| O=C(Oc1ccccc1Cl)c1cccnc1Nc1ccnc(C(F)(F)F)c1 | 14.7 | 31.4 | 17.3 | 37.2 | 26.6 | 84.5 | 15.6 | 30 | 35.2 | > 100 | 16.5 | 62.8 | 17.8 | 36.3 | 10.1 | 33.6 | 6.79 | 21.8 | 24.7 | 70.7 |
| CC(C)(C)c1ccc(NC(=O)c2cc(=O)c3ccccc3[nH]2)c(C(C)(C)C)c1O | 3.05 | 12.1 | 4.33 | 19.7 | 3.8 | 10.5 | 3.04 | 10.4 | 2.88 | 12.8 | 9.11 | 24.4 | 2.6 | 8.29 | 7.48 | 22.4 | 12.6 | 26.4 | 14.5 | 27.9 |
| CCCCCCCCOC(=O)c1cc(O)c(O)c(O)c1 | 2.46 | 11.9 | 8.26 | 24.7 | 9.36 | 24.8 | 6 | 18.6 | 0.686 | 15.6 | 1.52 | 10.2 | 2.02 | 20.5 | 1.49 | 12.1 | 4.72 | 18.2 | 3.77 | > 62.6 |
| C[C@]1(O)CC(=O)[C@]2(O)C3=C(C=C[C@]2(O)C1)C(=O)c1c(O)cccc1C3=O | 2.88 | 8.5 | 13 | 25.9 | 0.229 | 0.584 | 7.59 | 20.7 | 1.51 | 2.9 | 5.84 | 40.3 | 2.42 | 10.1 | 5.16 | 20.5 | 2.47 | 5.56 | 2.27 | 3.97 |
| Nc1nc(N)c2ncn(Cc3c(Cl)cccc3Cl)c2n1 |  | > 100 |  | > 100 |  | > 100 |  | > 100 |  | > 100 |  | > 100 |  | > 100 |  | > 100 |  | > 100 |  | > 100 |
| CC(=O)OC1C(O)COC(Oc2c(C)c3c4c(c2O)[C@@H](C)CC[C@@H]4[C@@H](C)C[C@H]3C=C(C)C)C1O (stereo not given in full) | 27 | > 100 | 16.6 | 32.7 | 21.5 | 50.5 | 18.7 | 43.6 | 15.6 | 32 | 15.4 | 32.5 | 11.3 | 26.3 | 12.9 | 32.7 | 42.7 | > 100 | 14.7 | 29 |
| C=C(C)[C@@H]1CC[C@]2(c3ncc(C)o3)CC[C@]3(C)[C@H](CC[C@@H]4[C@@](C)(CCC#N)[C@H](C(=C)C)CC[C@]43C)[C@@H]12 | 8.23 | 23.4 | 14.4 | 27.8 | 5.79 | 21.4 | 3.51 | 12.4 | 1.56 | 3.39 | 3.33 | 11.9 | 1.83 | 4 | 4.68 | 18.9 | 16.4 | 33.7 | 14 | 28.2 |
| CCCCCn1ncc(-c2c(O)c(O)cc3c(O)c(-c4c(C)cc5c(-c6cnn(CCCCC)n6)c(O)c(O)cc5c4O)c(C)cc23)n1 | 0.171 | 2.61 | 3.99 | 8.25 | 0.595 | 3.22 | 0.471 | 4.24 | 0.0723 | 0.242 | 0.903 | 5.32 | 0.147 | 2.53 | 0.147 | 4.27 | 0.147 | 6.81 | 0.126 | 5.05 |
